This passage reports IC50 results from BindingDB's records for patent US11926628 (Gilead Sciences, 2024).

One may read the pIC50 as the negative decadic logarithm of the IC50, by convention in mol/L. The low end stands for a high IC50, the high end for a low IC50.

SMILES strings stand for the structures. pIC50: −log10 of the molar value.

Sequence of Diacylglycerol kinase alpha (P23743 whole entry): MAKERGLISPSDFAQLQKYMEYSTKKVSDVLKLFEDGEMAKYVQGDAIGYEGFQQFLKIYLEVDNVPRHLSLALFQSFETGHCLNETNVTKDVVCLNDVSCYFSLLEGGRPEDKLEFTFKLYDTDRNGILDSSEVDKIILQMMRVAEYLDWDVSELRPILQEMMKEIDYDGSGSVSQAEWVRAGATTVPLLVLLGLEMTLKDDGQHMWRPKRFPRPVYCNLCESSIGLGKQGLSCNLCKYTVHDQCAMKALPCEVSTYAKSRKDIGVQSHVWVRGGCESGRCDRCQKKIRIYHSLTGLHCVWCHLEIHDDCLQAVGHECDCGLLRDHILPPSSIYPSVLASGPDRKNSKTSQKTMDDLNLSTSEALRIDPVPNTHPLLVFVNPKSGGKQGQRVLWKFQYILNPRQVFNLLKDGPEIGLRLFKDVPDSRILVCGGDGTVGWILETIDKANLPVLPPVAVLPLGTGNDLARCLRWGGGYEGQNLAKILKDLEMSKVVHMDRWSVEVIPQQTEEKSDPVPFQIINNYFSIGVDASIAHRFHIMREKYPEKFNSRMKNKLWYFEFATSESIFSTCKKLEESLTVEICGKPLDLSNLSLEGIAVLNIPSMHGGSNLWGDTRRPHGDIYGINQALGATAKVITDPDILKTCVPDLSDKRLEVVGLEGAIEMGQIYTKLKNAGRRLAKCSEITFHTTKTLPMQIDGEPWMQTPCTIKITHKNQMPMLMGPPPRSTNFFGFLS

The assay concerns the target Diacylglycerol kinase alpha (Homo sapiens, UniProt P23743). Description: DGKα Biochemical Activity Assay. The method, then: Ten nanoliters of test compound dissolved in DMSO at various concentrations were dispensed into a 384-well low volume nonbinding service white plates (Corning #3824) using a Labcyte Echo instrument. Recombinant DGKα (Carna Biosciences) in assay buffer (5 μL in 50 mM MOPS [3-(N-morpholino) propanesulfonic acid], pH 7.2; 0.0025% Triton X-100; 1 mM dithiothreitol; 5 mM MgCl2, 200 μM ATP) was added to the compound-containing plate and was incubated for 15 minutes at 25° C. A substrate solution (5 μL in 1.7 mM 1,2-dioleoyl-sn-glycerol [18:1 DAG], 13.5 mM 1-palmitoyl-2-oleoyl-sn-glycero-3-phospho-L-serine [16:0-18:1 PS](POPS), 2 μM CaCl2, 100 mM Octylglucoside (OG), 1 mM DTT) (obtained from Carna Biosciences) diluted in DGK ALPHA assay buffer was then added to start the reaction. Final concentrations were 1 nM DGKα, 100 μM ATP, 1 μM calcium chloride, 0.85 mM 1,2-dioleoyl-sn-glycerol (18:1 DAG), 6.75 mM 1-palmitoyl-2-oleoyl-sn-glycero-3-phospho-L-serine (16:0-18:1 PS) (POPS), 1 μM CaCl2), 50 mM Octylglucoside (OG) and 5 mM MgCl2. The reaction mixture was incubated at 25° C. for 1 hour. ADP-Glo Reagent (10 μL, 10 mM Mg added) provided by the kit was added to each well and incubated at 25° C. for 40 minutes. Then, 20 μL of Kinase Detection Reagent was added and incubated at 25° C. for 40 minutes. Luciferase activity of each well was measured via luminescence on an Envision plate reader (PerkinElmer).
Regarding `CCOc1ccc2c(N(C)c3cccc(-c4ccc(C5CC5)cc4)c3)nc3nncn3c2n1` [US11926628, Example 113], the negative logarithm of the IC50 (pIC50) is 6.15. Then `Cc1nnc2nc(N3CCCc4c(C#CC5(C(F)(F)F)CC5)cccc43)c3c(F)cncc3n12` [US11926628, Example 41], with 8.11; and `CN(C)c1ccc2c(N(C)c3cccc(-c4ccc(C5CC5)cc4)c3)nc3nncn3c2n1` [US11926628, Example 112], with 7.18; and `CN(C)c1ccc2c(N(C)c3cccc(C#CC(C)(C)C)c3)nc3nncn3c2n1` [US11926628, Example 110], with 6.03. In the case of `COc1ccc(-c2cccc(N(C)c3nc4nncn4c4nc(N(C)C)ccc34)c2)cn1` [US11926628, Example 111] it was 6.43. In the case of `CN(c1cccc(C#CC(C)(C)C)c1)c1nc2nncn2c2cnccc12` [US11926628, Example 60] it was 7.21; in that of `Cc1nnc2nc(N3CCCCc4c(C#CC(C)(C)C#N)cccc43)c3c(F)cncc3n12` [US11926628, Example 64], 8.24.
